Two molecules from US8512961B2, “Methods of detecting and treatment of cancers using Scutellaria barbata extract” (Bionovo, Inc., priority 2007, dated 2013) can be followed below.

One assay has as its system DNA. In words: DNA damage, comet formation. Type of assay: cell-based. The note with it: for effect on comet formation induced by BZL101: cells pretreated prior to the addition of BZL101. The source says: There is a different fold increase of ROS levels in different cells treated with BZL101 compared to control untreated cells. It is of particular interest that the increase in ROS correlates well with the degree of DNA damage induced in these cells.
To further implicate ROS in the induction of DNA damage, comet formation in cells pretreated with the antioxidants NAC and pyruvate prior to the addition of BZL101 were examined.

A further assay concerns SKBr3 cells. In words: 8-oxoguanine, flow cytometry with avidin fluorescein. Type of assay: cell-based, human. The settings on record: cells pretreated prior to addition of BZL101. As for the experimental part: To verify that BZL101 leads to oxidative DNA damage, it was determined whether the DNA of BZL101-treated cells contains 8-oxoguanine, the most ubiquitous marker of DNA oxidation. […] (See FIG. 9). […] (See FIG. 10). Analysis of the 8-oxoguanidine and apurininc/apyrimidinic (AP) bases in DNA. The Calbiochem kit was used for staining of the fixed and permeabilized cells with avidin fluorescein. Quantification of apurinic/[…] nucleotides in genomic DNA was performed using the DNA damage quantification kit from BioVision Research Products.
In general terms: Flow cytometry measures light scatter and fluorescence of single cells or particles in a stream.

The next assay deals with ROS. In words: ROS generation, staining with ROS-sensitive probe CM-H2DCFDA. It is filed as cell-based. The note with it: incubation of cells prior to addition of BZL101; SKBr3 cells.

Regarding `CC1(C)N([O])C(c2ccccc2)=[N+]([O-])C1(C)C` [PTIO], the “effect on comet formation induced by BZL101” value in the assay with DNA was “no effect”.
For `CC(=O)N[C@@H](CS)C(=O)O` [NAC, N-acetyl-cysteine], the “effect on comet formation induced by BZL101” value in the assay with DNA was “significantly reduced the number of cells forming comets”. The “DNA damage repair in cancer cells” value in the assay on DNA (in the presence of the antioxidant, BZL101-treated cancer cells) is “greatly accelerated”. The “effect on BZL101-induced increase in avidin binding (8-oxoguanine)” value in the assay on SKBr3 cells is reported as “completely abolished”. Further, the “effect on BZL101-induced ROS generation” value in the assay with ROS is “prevented most of the increase in ROS generation”.
